Assay results: patent publication US11197868B2, “Prevention of preterm birth (PTB) by inhibition of FKBP51” (UNIVERSITY OF SOUTH FLORIDA, priority 2017, dated 2021)

Tested on: FKBP51
Assay: FKBP51 protein expression in primary term decidual cell cultures by immunoblotting
Type: cell-based
Conditions: 24 hours
Method: This example describes an analysis of FKBP51 expression in primary term decidual cells (DCs) induced by dexamethasone (DEX) (0.1 μM) or 15dPGJ2 (5 or 20 μM) or DEX+15dPGJ2 (0.1 μM+5 or +20 μM).
Glucocorticoids (e.g. dexamethasone (DEX), medroxyprogesterone acetate) are primary inducers of FKBP51 mRNA and protein expression in decidual cells (DCs). It was determined that both restrained stress-induced preterm birth and fetal growth restriction are blocked in FKBP51 knockout mice compared to WT mice. To determine the potential therapeutic impact of 15-deoxy-Δ12,14-prostaglandin J2 (15dPGJ2) on regulation of dexamethasone-induced FKBP51, primary term DC cultures (n=1) were induced by DEX (0.1 μM), 15dPGJ2 (5 or 20 μM), or DEX+15dPGJ2 (0.1 μM+5 or +20 μM) for 24 hours, and FKBP51 protein levels were then analyzed by immunoblotting, as shown in FIG. 15A.

| Compound | decrease of FKBP51 expression compared to control (5 μm 15dPGJ2 alone, term DC cultures (n=1)) | reduction of DEX-induced FKBP51 expression (5 μm 15dPGJ2 combined with DEX 0.1 μM, term DC cultures (n=1)) | decrease of FKBP51 expression compared to control (20 μm 15dPGJ2 alone, term DC cultures (n=1)) | effect on DEX-induced FKBP51 expression (20 μm 15dPGJ2 combined with DEX 0.1 μM, term DC cultures (n=1)) | increase of FKBP51 expression compared to control (DEX 0.1 μM alone, primary term DC cultures (n=1)) |
| --- | --- | --- | --- | --- | --- |
| CCCCC/C=C/C=C1/C(=O)C=C[C@@H]1C/C=C\CCCC(=O)O [15dPGJ2, 15-deoxy-Δ12,14-prostaglandin J2] | 10% | 12% | 18% | completely blocking DEX-induced FKBP51 expression |  |
| C[C@@H]1C[C@H]2[C@@H]3CCC4=CC(=O)C=C[C@]4(C)[C@@]3(F)[C@@H](O)C[C@]2(C)[C@@]1(O)C(=O)CO [DEX, dexamethasone] |  |  |  |  | 60% |
